Source: patent US20050060764A1, “Mouse model for bone metabolism” (priority 2003, published 2005)
Strand notation (5' to 3'): a small letter for the sugar, then the base; units joined by * are phosphorothioate-linked, units joined directly phosphodiester-linked; [ ] holds rarer units or linkages, { } end groups; capitals alone tell only the bases. e = 2'-O-(2-methoxyethyl) (MOE); [5mC] = 5-methylcytosine; d = 2'-deoxy (DNA)

Experiments:
[1] = Serum calcium concentration after PTH infusion in mice: specificity and dose response of RANK antisense oligonucleotide (Table 15); type: in vivo, mouse; conditions: for serum calcium: then 24 h PTH
Method: (§1) In accordance with the present invention, the specificity of RANK inhibition by a RANK antisense oligonucleotide was compared to that of an 8-base pair mismatch oligonucleotide.
(§2) ISIS 181080 ([…], SEQ ID NO: 357) is an antisense oligonucleotide targeted to mouse RANK. ISIS 208565 ([…], SEQ ID NO: 358) is an 8-base pair mismatch oligonucleotide. […] All cytidine residues are 5-methylcytidines.
(§3) Female Swiss-Webster mice (5-8 wks old) fed a low-calcium diet were treated for two weeks with either ISIS 181080 or ISIS 208565. The dose of oligonucleotide was either 40 mg/kg, 30 mg/kg, 20 mg/kg, or 10 mg/kg. After the 2-week treatment with oligonucleotides, the mice were infused with PTH by subcutaneously implanted mini-pumps at a dose of 4 ug/100 g over 24 hours. A group of control mice were dosed with either saline, PTH alone (1 ug/100 g/6 hr) or calcitonin (400 ng) plus PTH (1 ug/100 g/6 hr). After 24 hours of PTH infusion (total PTH delivery of 4 ug/100 g), the mice were sacrificed and measurements were made of serum calcium with the Sigma Diagnostics Calcium Kit (Sigma-Aldrich) and RANK mRNA expression in proximal tibia (as described in other examples herein). The results shown in Table 15 are the average from four mice per group. Percent inhibition of RANK mRNA is normalized to PTH treatment alone. […] The data also illustrate that these effects are occurring due to an antisense mechanism.

[2] = test system: RANK mRNA; test: Antisense inhibition of RANK mRNA expression in proximal tibia after PTH infusion in mice: specificity and dose response (Table 15); type: in vivo, mouse; conditions: for RANK mRNA % inhibition (normalized to PTH): then 24 h PTH, proximal tibia
Method: as §1, §2, §3

[3] = test system: mouse RANKL mRNA; test: Antisense inhibition of mouse RANKL mRNA levels in C2C12 cells, quantitative real-time PCR (Table 2); type: cell-based; parameters: concentration or dose not given beside the values; conditions: averages from three experiments
Method in brief: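 C2C12 cells seeded at ~10,000 cells/cm^2, treated with antisense oligonucleotides (all C as 5-methylcytidine) in triplicate and harvested 16-24 h later. Mouse RANKL mRNA quantified by real-time RT-PCR with a FAM/TAMRA probe, with mouse GAPDH (JOE/TAMRA probe) as reference.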

[4] = Serum calcium concentration 24 hours after PTH infusion in mice treated with RANKL antisense oligonucleotides (Table 10); type: in vivo, mouse; conditions: then 24 h PTH infusion
Method: In accordance with the present invention, the effect of antisense oligonucleotide inhibition on PTH-induced serum calcium concentration increase was measured in mice. The serum calcium concentration in mice was measured as a function of antisense oligonucleotide dose. Calcitonin, a known bone antiresorptive agent, was used as a control for antiresorptive activity.
(§4) Female Swiss-Webster (5-8 wks old) mice fed a low-calcium diet were dosed subcutaneously for two weeks with either the oligonucleotides ISIS 180819 (SEQ ID NO: 185) or 180814 (SEQ ID NO: 180) at concentrations of 5 mg/kg, 15 mg/kg, 30 mg/kg, or 40 mg/kg. A control group of mice were treated with calcitonin (400 ng) plus PTH (1 ug/100 g/6 hr), PTH alone (1 ug/100 g/6 hr) or saline. Treatment with oligonucleotides was followed with infusion of PTH by subcutaneously implanted mini-pumps at a dose of 1 ug/100 g/6 hr. After 24 hours of PTH infusion (total PTH delivery of 4 ug/100 g), the mice were sacrificed and the serum calcium concentration was measured with the Sigma Diagnostics Calcium Kit (Sigma-Aldrich). The data, summarized in Table 10 are averages from eight mice. Percent mRNA inhibition is normalized to PTH alone treatment.

[5] = test system: RANKL mRNA; test: RANKL mRNA % inhibition after PTH infusion in mice treated with RANKL antisense oligonucleotides for two weeks (Table 10); type: in vivo, mouse; conditions: then 24 h PTH infusion, normalized to PTH alone
Method: as §4

[6] = test system: RANKL mRNA; test: Antisense inhibition of RANKL mRNA expression followed by PTH treatment in primary mouse osteoblast cells: dose response (Table 8); type: cell-based; conditions: primary mouse osteoblast cells; 63 nM, 125 nM, 250 nM, or 500 nM, 24 hours, FuGENE 6; 10 nM PTH last 2 hours
Method: Primary mouse osteoblasts were prepared from calvaria of neonatal mice purchased from Charles River Laboratories. […] Cells were not passaged. Cells were seeded onto 6-well plates (Falcon-Primaria #353846) at a density of 50,000 cells/well for use in antisense oligonucleotide transfection.
In a further embodiment of this invention, the effect of RANKL antisense oligonucleotides and PTH treatment on the expression of RANKL was determined in primary osteoblast cells isolated from mice skull caps.
ISIS 143624 ([…], SEQ ID NO: 348) was used as a control oligonucleotide. […] All cytidine residues are 5-methylcytidines.
Primary osteoblastic cells were transfected for 24 hours with either Isis 180819 (SEQ ID NO: 185) or the control oligo ISIS 143624 (SEQ ID NO: 348) at a dose of […], 125 nM, 250 nM, or 500 nM by the methods described herein but using the transfection reagent FuGENE 6 (Roche Applied Science, Indianapolis, Ind.). During the last 2 hours of oligonucleotide transfection, the cells were treated with 10 nM PTH. The RNA was then harvested and the expression levels of […] were measured by the methods described herein. The results are expressed as percent inhibition relative to PTH treatment alone and represent the average from three experiments.

[7] = Serum calcium after RANK antisense oligonucleotide treatment and PTH infusion: time course (Table 13); type: in vivo, mouse; conditions: control mice, no oligonucleotide; PTH 1 ug/100 g/6 hr 24 h, calcitonin (400 ug)
Method: In accordance with the present invention, ISIS 181071 was administered to mice for different time periods to evaluate its ability to inhibit RANK expression and PTH-induced serum calcium concentration increase as a function of oligonucleotide treatment time.
Female Swiss-Webster mice (5-8 wks old) were fed a low-calcium diet and received daily subcutaneous injections of 30 mg/kg of ISIS 181071 (SEQ ID NO: 356) for 2, 3, 5, 7, 10, 14, or 21 days. At the end of the oligonucleotide treatment period, mice were infused with PTH by subcutaneously implanted mini-pumps at a dose of 1 ug/100 g/6 hr. A group of control mice were dosed with either saline, PTH alone (1 ug/100 g/6 hr) or calcitonin (400 ug) plus PTH (1 ug/100 g/6 hr). Following 24 hours of PTH infusion (total PTH delivery of 4ug/100 g), the mice were sacrificed and measurements were made of serum calcium with the Sigma Diagnostics Calcium Kit (Sigma-Aldrich) and RANK mRNA expression in the proximal tibia (as described in other examples herein). Percent RANK mRNA inhibition is normalized to PTH alone treatment.

[8] = 5 mg/kg subcutaneously two weeks
[9] = 15 mg/kg subcutaneously two weeks
[10] = 30 mg/kg subcutaneously two weeks
[11] = 40 mg/kg subcutaneously two weeks
[12] = mice, two weeks 10, 20, 30 or 40 mg/kg, 24 hours PTH infusion

With “TCCTCGAGAGGTCTCCTTGC (antisense eT*e[5mC]*e[5mC]*eT*e[5mC]*dG*dA*dG*dA*dG*dG*dT*d[5mC]*dT*d[5mC]*e[5mC]*eT*eT*eG*e[5mC]) [ISIS 208565, 8-base pair mismatch oligonucleotide, 2′-MOE gapmer, reference compound]” the serum calcium ([1]; 10 mg/kg two weeks) was 21 mg/dL, the serum calcium ([1]; 20 mg/kg two weeks) was 17 mg/dL and the serum calcium ([1]; 30 mg/kg two weeks) was 18 mg/dL. For the same molecule, the serum calcium ([1]; 40 mg/kg two weeks) was 16 mg/dL, the “RANK mRNA % inhibition (normalized to PTH)” value ([2]; 10 mg/kg two weeks) was 0% and the “RANK mRNA % inhibition (normalized to PTH)” value ([2]; 20 mg/kg two weeks) was 0%. The “RANK mRNA % inhibition (normalized to PTH)” value ([2]; 30 mg/kg two weeks) was 19% and the “RANK mRNA % inhibition (normalized to PTH)” value ([2]; 40 mg/kg two weeks) was 7%.

With “gtcttacacatgtatagaca (antisense eG*eT*e[5mC]*eT*eT*dA*d[5mC]*dA*d[5mC]*dA*dT*dG*dT*dA*dT*eA*eG*eA*e[5mC]*eA) [ISIS 180814, 2′-MOE gapmer targeted to mouse RANKL]” the “% INHIB (inhibition of mouse RANKL mRNA levels)” value [3] was “at least 40%”, the “serum calcium” value [4, 8] was 22 mg/dL and the “serum calcium” value [4, 9] was 20 mg/dL. For the same molecule, the “serum calcium” value [4, 10] was 18 mg/dL, the “serum calcium” value [4, 11] was 19 mg/dL and the “RANKL mRNA, % inhib” value [5, 8] was 0 % inhib. For the same molecule, the “RANKL mRNA, % inhib” value [5, 9] was 0 % inhib, the “RANKL mRNA, % inhib” value [5, 10] was 27 % inhib and the “RANKL mRNA, % inhib” value [5, 11] was 6 % inhib.

In the case of “TGCTCAGCGAGTGTGCCAGC (sugars by position and backbone not given here; further chemistry not fully specified) [ISIS 143624, control oligonucleotide, 2′-MOE gapmer, reference compound]”, the “inhibition of PTH-induced increase in RANKL mRNA expression” value [6] is reported as “unable to reduce RANKL mRNA levels”.

“GAGCTCCCGGACCCTGAGGC (listed as DNA, chemistry not given here) [ISIS 181080, antisense oligonucleotide targeted to mouse RANK]” showed a serum calcium ([1]; 10 mg/kg two weeks) of 23 mg/dL, a serum calcium ([1]; 20 mg/kg two weeks) of 17 mg/dL and a serum calcium ([1]; 30 mg/kg two weeks) of 15 mg/dL. For the same molecule, the serum calcium ([1]; 40 mg/kg two weeks) was 16 mg/dL, the “PTH-induced rise in serum calcium concentration” value [1, 12] was “lessens the PTH-induced rise in serum calcium concentration” and the “RANK mRNA % inhibition (normalized to PTH)” value ([2]; 10 mg/kg two weeks) was 47%. For the same molecule, the “RANK mRNA % inhibition (normalized to PTH)” value ([2]; 20 mg/kg two weeks) was 38%, the “RANK mRNA % inhibition (normalized to PTH)” value ([2]; 30 mg/kg two weeks) was 48% and the “RANK mRNA % inhibition (normalized to PTH)” value ([2]; 40 mg/kg two weeks) was 65%. For the same molecule, the “expression of RANK mRNA in proximal tibia” value [2, 12] was “inhibits expression of RANK mRNA in vivo”.

B1: PTH alone (peptide, UniProt P01270 32-115, looked up)
Parathyroid hormone: SVSEIQLMHNLGKHLNSMERVEWLRKKLQDVHNFVALGAPLAPRDAGSQRPRKKEDNVLVESHEKSLGEADKADVNVLTKAKSQ
Work on B1 yielded a Serum calcium concentration [7] of 21 mg/dL.
